Reference: the supplement of paper PMC10307832

Key:
Assay in all cases: relative viability (nuclei count vs DMSO), 5 days (fraction); higher = more cells survive
KN-93 + Olaparib = compound: CN(C/C=C/C1=CC=C(C=C1)Cl)CC2=CC=CC=C2N(CCO)S(=O)(=O)C3=CC=C(C=C3)OC [KN-93] + O=C(c1cc(Cc2n[nH]c(=O)c3ccccc23)ccc1F)N1CCN(C(=O)C2CC2)CC1 [Olaparib] (partner 8 µM)
Outline: (§1)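 Lung cancer cell lines, seeded in 1536-well plates, were treated the following day by pin tool with a single drug or with five library-drug doses (not always all listed) in √10 steps on top of a fixed anchor-drug dose. Cells were fixed and nuclei stained in one step after 5 days, and nuclei were counted. Relative viability is the nuclei count for treated wells divided by that for vehicle wells, reported as medians of duplicate plates.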

KN-93 + Linsitinib = compound: CN(C/C=C/C1=CC=C(C=C1)Cl)CC2=CC=CC=C2N(CCO)S(=O)(=O)C3=CC=C(C=C3)OC [KN-93] + C[C@]1(O)C[C@@H](c2nc(-c3ccc4ccc(-c5ccccc5)nc4c3)c3c(N)nccn32)C1 [Linsitinib] (partner 1 µM)
Outline: as §1

KN-93 + AZD7762 = compound: CN(C/C=C/C1=CC=C(C=C1)Cl)CC2=CC=CC=C2N(CCO)S(=O)(=O)C3=CC=C(C=C3)OC [KN-93] + NC(=O)Nc1cc(-c2cccc(F)c2)sc1C(=O)N[C@H]1CCCNC1 [AZD7762] (partner 0.2 µM)
Outline: as §1

KN-93 + Palbociclib = compound: CN(C/C=C/C1=CC=C(C=C1)Cl)CC2=CC=CC=C2N(CCO)S(=O)(=O)C3=CC=C(C=C3)OC [KN-93] + CC(=O)c1c(C)c2cnc(Nc3ccc(N4CCNCC4)cn3)nc2n(C2CCCC2)c1=O [Palbociclib] (partner 0.5 µM)
Outline: as §1

KN-93 + Luminespib = compound: CN(C/C=C/C1=CC=C(C=C1)Cl)CC2=CC=CC=C2N(CCO)S(=O)(=O)C3=CC=C(C=C3)OC [KN-93] + CCNC(=O)c1noc(-c2cc(C(C)C)c(O)cc2O)c1-c1ccc(CN2CCOCC2)cc1 [Luminespib] (partner 0.01 µM)
Outline: as §1

Cell Line | relative viability (KN-93 + Olaparib; first compound 0.08 µM) | relative viability (KN-93 + Olaparib; first compound 0.253 µM) | relative viability (KN-93 + Olaparib; first compound 2.53 µM) | relative viability (KN-93 + Olaparib; first compound 8 µM) | relative viability (KN-93 + Linsitinib; first compound 0.253 µM) | relative viability (KN-93 + Linsitinib; first compound 2.53 µM) | relative viability (KN-93 + Linsitinib; first compound 8 µM) | relative viability (KN-93 + AZD7762; first compound 0.08 µM) | relative viability (KN-93 + AZD7762; first compound 0.253 µM) | relative viability (KN-93 + AZD7762; first compound 2.53 µM) | relative viability (KN-93 + AZD7762; first compound 8 µM) | relative viability (KN-93 + Palbociclib; first compound 0.08 µM) | relative viability (KN-93 + Palbociclib; first compound 0.253 µM) | relative viability (KN-93 + Palbociclib; first compound 2.53 µM) | relative viability (KN-93 + Palbociclib; first compound 8 µM) | relative viability (KN-93 + Luminespib; first compound 0.08 µM) | relative viability (KN-93 + Luminespib; first compound 0.253 µM) | relative viability (KN-93 + Luminespib; first compound 2.53 µM) | relative viability (KN-93 + Luminespib; first compound 8 µM) | relative viability (KN-93 + Linsitinib; first compound 0.08 µM)
HCC-366 | 0.298 | 0.318 | 0.422 | 0.2 | 0.706 | 0.844 | 0.334 | 0.269 | 0.221 | 0.286 | 0.0943 | 0.407 | 0.531 | 0.563 | 0.221 | – | – | – | – | –
HCC-827 | 0.745 | 0.556 | 0.704 | 0.608 | 0.921 | 0.939 | 0.875 | 0.195 | 0.159 | 0.191 | 0.186 | 0.591 | 0.492 | 0.845 | 0.422 | 0.642 | 0.836 | 0.496 | 0.465 | 1.02
HOP-62 | 0.325 | 0.401 | 0.0964 | 0.545 | 1.15 | 1.12 | 0.982 | 0.476 | 0.499 | 0.797 | 0.458 | 0.461 | 0.573 | 0.552 | 0.477 | 0.842 | 1.13 | 0.995 | 0.903 | 0.938
IA-LM | 1.05 | 0.656 | 0.933 | 0.579 | 0.495 | 0.463 | 0.827 | – | – | – | – | – | – | – | – | – | – | – | – | 0.608
NCI-H520 | 0.312 | 0.312 | 0.282 | 0.272 | 1.21 | 1.12 | 0.682 | – | – | – | – | 0.219 | 0.218 | 0.251 | 0.201 | 0.246 | 0.212 | 0.281 | 0.224 | –
NCI-H596 | 0.737 | 0.507 | 0.658 | 0.642 | 1.19 | 1.03 | 0.89 | 1 | 1.08 | 1.11 | 0.845 | – | – | – | – | 0.924 | 1.34 | 1.21 | 0.789 | 1
NCI-H661 | 0.577 | 0.951 | 0.64 | 0.4 | 0.531 | 0.433 | 0.562 | – | – | – | – | 0.439 | 0.409 | 0.308 | 0.308 | 0.896 | 1.06 | 0.851 | 0.542 | 0.502
NCI-H1563 | – | – | – | – | 1.2 | 1.02 | 0.934 | – | – | – | – | – | – | – | – | 0.625 | 0.483 | 0.577 | 0.517 | 1.22
NCI-H1650 | 0.702 | 0.428 | 0.854 | 0.608 | – | – | – | – | – | – | – | 0.377 | 0.323 | 0.391 | 0.269 | 0.182 | 0.187 | 0.208 | 0.19 | –
NCI-H1703 | 0.432 | – | 0.372 | 0.181 | – | 0.976 | 0.389 | 0.117 | 0.115 | 0.105 | 0.153 | – | – | – | – | – | – | – | – | 1.14
NCI-H2009 | 0.683 | 0.815 | 0.656 | 0.528 | 1.24 | 1.17 | 0.94 | – | – | – | – | 0.244 | 0.204 | 0.217 | 0.196 | 1.05 | 1.11 | 1.08 | 0.746 | 1.16
NCI-H2023 | 0.454 | 0.542 | 0.606 | 0.324 | 0.669 | 0.657 | 0.532 | – | – | – | – | 0.384 | 0.436 | 0.49 | 0.227 | 0.693 | 0.703 | 0.872 | 0.358 | 0.613
NCI-H2170 | 0.531 | 0.679 | 0.679 | 0.419 | – | – | – | 0.623 | 0.971 | 0.845 | 0.734 | 0.35 | 0.48 | 0.403 | 0.338 | 0.785 | 0.852 | 0.963 | 0.483 | –
NCI-H2228 | 0.617 | 0.611 | 0.8 | 0.269 | 0.517 | 0.63 | 0.314 | – | – | – | – | 0.723 | 0.97 | 1.09 | 0.165 | 0.174 | 0.126 | 0.163 | 0.134 | 0.581
NCI-H2342 | 0.4 | 0.423 | 0.446 | 0.352 | – | – | – | 0.472 | 0.467 | 0.539 | 0.404 | 0.538 | 0.54 | 0.565 | 0.507 | 0.623 | 0.686 | 0.913 | 0.634 | –
SK-LU-1 | 0.412 | 0.471 | 0.463 | 0.276 | 1.12 | 1.21 | 0.602 | – | – | – | – | 0.439 | 0.451 | 0.41 | 0.314 | 0.244 | 0.209 | 0.199 | 0.183 | 1.06
SK-MES-1 | 0.648 | 0.665 | 0.935 | 0.333 | 1.05 | 1.12 | 1.02 | – | – | – | – | 0.367 | 0.301 | 0.354 | 0.284 | 0.899 | 0.69 | 0.728 | 0.286 | 1.06
SW 900 | 1.13 | 0.766 | 1.13 | 0.559 | – | – | – | 0.669 | 0.628 | 0.684 | 0.522 | 0.539 | 0.592 | 0.509 | 0.471 | 0.166 | 0.178 | 0.145 | 0.182 | –
SW 1573 | 0.456 | 0.589 | 0.523 | 0.22 | 0.884 | 0.714 | 0.349 | – | – | – | – | 0.395 | 0.47 | 0.429 | 0.15 | 0.178 | 0.303 | 0.187 | 0.144 | 0.906
UMC-11 | 0.43 | 0.402 | 0.327 | 0.214 | 1.19 | 1.13 | 0.713 | – | – | – | – | 0.35 | 0.306 | 0.35 | 0.322 | 1.01 | 1.33 | 1.32 | 0.346 | –
